Experimental data from US4412998A, “Certain 4-(1-piperidino)-phenyl-nicotinates” (Merz & Company, priority 1979, dated 1983).

Columns and labels:
[1] = ED50 in rat (Table 1); assay type: in vivo
[2] = in vivo; conditions: rat
[3] = Cholesterol reduction in rats on high-fat diet; assay type: in vivo, female Wistar rats; conditions: Rattus norvegicus, read-out: Chol. Red. in %
Protocol: (§1) Additionally, experiments on female Wistar rats were carried out. For a period of 3 weeks the animals received a special diet with a very high fat content. Starting from the second week, half the rats were treated with a dosage of 100 and 25 mg/kg body weight. After the third week blood samples were taken 18 hours after administration of the last dose. Triglyceride and cholesterol concentrations were compared with that of the untreted animals. Cholesterol and triglycerides were determined with the aid of the Boehringer enzymatic test.

[4] = Triglyceride reduction in rats on high-fat diet; assay type: in vivo, female Wistar rats; conditions: Rattus norvegicus, high fat diet 3 weeks, blood 18 hours after last dose, read-out: Triglyc. Red. in %
Protocol: as §1

[5] = cited from earlier work; for reduction of free fatty acids (in words): test animals, low dosage between 0.5 and 30 mg/kg body weight
[6] = high fat diet 3 weeks, blood 18 hours after last dose
[7] = 100 mg/kg, high fat diet 3 weeks, blood 18 hours after last dose

SMILES	ED50 [1] [mg/kg]	LD50 [2] [mg/kg]	selectivity ratio [2]	inhibition in vivo at 100 mg/kg [3, 7] [%]	inhibition in vivo at 100 mg/kg [4] [%]	other results
CC(C)(C)c1cc(C2CCCCC2)ccc1OC(=O)c1cccnc1 [Example 8, 2-t-butyl-4-cyclohexylphenyl nicotinate]	30	1700	56			inhibition in vivo at 25 mg/kg [3, 6]: 9%; inhibition in vivo at 25 mg/kg [4]: 8%
O=C(Oc1cccc2c1CCCC2)c1cccnc1 [Example 7, 5,6,7,8-Tetrahydro-1-naphthyl-nicotinate]				22	18	
O=C(Oc1ccc(C2CCCCC2)cc1)c1cccnc1 [Example 1, p-cyclohexylphenyl nicotinate]	50	2200	44	45	19	
O=C(O)c1cccnc1 [Nicotinic acid, nicotinic acid, reference compound]	~500	4000	8			inhibition in vivo at 100 mg/kg ([3]; 18 h): 7%; influence on lipids (in words) ([5]; background): act predominantly on elevated cholesterol values and free fatty acids; side effects (in words) ([5]; background): flush, headache, nausea, vomiting; reduction of free fatty acids (in words) [5]: great reduction of the free fatty acids
CC(C)(Oc1ccc(Cl)cc1)C(=O)Oc1ccc(C(=O)CC23CC4CC(CC(C4)C2)C3)cc1 [Example 3, 2-(p-chlorophenoxy)-isobutyric acid-p-(1-adamantylacetyl)-phenyl ester]				27	35	
CC(C)(c1ccccc1)c1ccc(OC(=O)c2cccnc2)cc1 [Example 9, p-cumylphenyl nicotinate]				24	1	
O=C(Oc1ccc(C(=O)c2ccc(Cl)cc2)cc1)c1cccnc1 [Example 10, p-chlorobenzoylphenyl nicotinate]				29		
CCOC(=O)C(C)(C)Oc1ccc(Cl)cc1 [clofibrate, ethyl ester of 2-(p-chlorophenoxy)-isobutyric acid, reference compound]	~300	1500			8	cases with cholesterol (CH) in the β- and α-lipoproteins further increased ([5]; in vivo): about 20%; fall of the initial values of triglycerides (TG) and pre-β-lipoproteins ([5]; in vivo): up to 50%
Cl.O=C(Oc1ccccc1C1CCCCC1)c1cccnc1 [Example 6, o-cyclohexylphenyl nicotinate hydrochloride]	22	2050	93			inhibition in vivo at 25 mg/kg [3, 6]: 18%; inhibition in vivo at 25 mg/kg [4]: 16%
CC(C)(Oc1ccc(Cl)cc1)C(=O)OCc1cccnc1 [3-pyridyl carbinol ester of clofibric acid]						influence on lipids (in words) ([5]; background): effective lipid- and cholesterol-lowering component
O=C(Oc1ccc(C23CC4CC(CC(C4)C2)C3)cc1)c1cccnc1 [Example 2, p-(1-adamantylphenyl)-nicotinate]	68	3200	47	28	47	
OCc1cccnc1 [3-pyridyl carbinol]						reduction of free fatty acids (in words) [5]: great reduction of the free fatty acids
